The results in this text go back to US9505710B2 (priority 2015, dated 2016).

Structures can show the parent of a compound that is named as a salt.

A word on the Ki: it is a measure of affinity in units of concentration, obtained from inhibition or displacement. Read a low Ki as higher affinity.

T1 sequence (P0DPI1 1-429, added parts left off): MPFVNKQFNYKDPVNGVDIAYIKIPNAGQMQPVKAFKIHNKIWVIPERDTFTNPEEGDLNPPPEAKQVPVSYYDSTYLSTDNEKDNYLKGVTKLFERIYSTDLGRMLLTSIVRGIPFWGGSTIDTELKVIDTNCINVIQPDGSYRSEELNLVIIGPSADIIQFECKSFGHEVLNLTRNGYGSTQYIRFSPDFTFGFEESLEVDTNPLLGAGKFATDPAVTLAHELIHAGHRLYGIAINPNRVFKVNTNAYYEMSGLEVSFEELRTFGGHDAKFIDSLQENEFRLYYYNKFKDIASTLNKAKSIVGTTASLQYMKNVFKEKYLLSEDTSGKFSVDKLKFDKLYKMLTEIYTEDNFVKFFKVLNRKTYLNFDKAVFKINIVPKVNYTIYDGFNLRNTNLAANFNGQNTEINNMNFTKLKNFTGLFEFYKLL

The first assay concerns the target T1, BoNT/A LC1-429 (Clostridium botulinum, UniProt P0DPI1). Description: biochemical.
Details: not given
Turning to `CCO[C@H](CC(=O)NO)[C@H](Cc1ccccc1)c1ccc(F)cc1` [Example 1-1, (3R,4R)-3-ethoxy-4-(4-fluorophenyl)-N-hydroxy-5-phenylpentanamide], the Ki came to 0.0385 µM.
In the case of `CCO[C@H](CC(=O)NO)[C@H](Cc1cccc(Br)c1)c1ccc(F)cc1` [Example 1-2, (3R,4R)-5-(3-bromophenyl)-3-ethoxy-4-(4-fluorophenyl)-N-hydroxypentanamide], the inhibitory constant (Ki) came out at 0.154 µM.
As to `CCO[C@H](CC(=O)NO)[C@H](Cc1ccc(Br)cc1)c1ccc(F)cc1` [Example 1-4, (3R,4R)-5-(4-bromophenyl)-3-ethoxy-4-(4-fluorophenyl)-N-hydroxypentanamide], the Ki was found to be 0.0068 µM.
Same read-out and setting: to `C=Cc1ccc(C[C@H](c2ccc(F)cc2)[C@@H](CC(=O)NO)OCC)cc1` [Example 1-5, (3R,4R)-3-ethoxy-4-(4-fluorophenyl)-N-hydroxy-5-(4-vinylphenyl)pentanamide] belongs 0.0335 µM; to `CCO[C@H](CC(=O)NO)[C@H](Cc1ccc(CC)cc1)c1ccc(F)cc1` [Example 1-6, (3R,4R)-3-ethoxy-5-(4-ethylphenyl)-4-(4-fluorophenyl)-N-hydroxypentanamide], 0.0915 µM.
On the same count and under the same terms, to `CCO[C@H](CC(=O)NO)[C@H](Cc1ccc(C(=O)NC)cc1)c1ccc(F)cc1` [Example 1-7] belongs 1.22 µM.
Consider `CCO[C@H](CC(=O)NO)[C@H](Cc1ccc(C(=O)N(C)C)cc1)c1ccc(F)cc1` [Example 1-8, 4-((2R,3R)-3-ethoxy-2-(4-fluorophenyl)-5-(hydroxyamino)-5-oxopentyl)-N,N-dimethylbenzamide], for which the Ki was 4.35 µM.
Compound `CCO[C@H](CC(=O)NO)[C@H](Cc1ccc(C(=O)O)cc1)c1ccc(F)cc1` [Example 1-10, 4-((2R,3R)-3-ethoxy-2-(4-fluorophenyl)-5-(hydroxyamino)-5-oxopentyl)benzoic acid] registered a Ki of 23.3 µM.
Still for that read-out and setting: to `CCO[C@H](CC(=O)NO)[C@H](Cc1cccc(-c2ccncc2)c1)c1ccc(F)cc1` [Example 1-11, (3R,4R)-3-ethoxy-4-(4-fluorophenyl)-N-hydroxy-5-(3-(pyridin-4-yl)phenyl)pentanamide] belongs 1.06 µM; to `CCO[C@H](CC(=O)NO)[C@H](Cc1ccc(-c2ccncc2)cc1)c1ccc(F)cc1` [Example 1-12, (3R,4R)-3-ethoxy-4-(4-fluorophenyl)-N-hydroxy-5-(4-(pyridin-4-yl)phenyl)pentanamide], 0.178 µM; to `CCO[C@H](CC(=O)NO)[C@H](Cc1ccc(-c2cccnc2)cc1)c1ccc(F)cc1` [Example 1-13, (3R,4R)-3-ethoxy-4-(4-fluorophenyl)-N-hydroxy-5-(4-(pyridin-3-yl)phenyl)pentanamide], 0.147 µM.
Consider `CCO[C@H](CC(=O)NO)[C@H](Cc1ccc(-c2cncc(C)c2)cc1)c1ccc(F)cc1` [Example 1-14, (3R,4R)-3-ethoxy-4-(4-fluorophenyl)-N-hydroxy-5-(4-(5-methylpyridin-3-yl)phenyl)pentanamide], for which the affinity, expressed as Ki, was 0.158 µM.

The target in the next assay is T1, BoNT/A LC1-429. Description: biochemical. The note with it: BoNT/A Ki (nM).
As for `O=C(C[C@@H](OCC1CC1)[C@H](Cc1ccc(Cl)cc1)c1ccc(F)cc1F)NO` [Example 6-17, (3R,4R)-5-(4-chlorophenyl)-3-(cyclopropylmethoxy)-4-(2,4-difluorophenyl)-N-hydroxypentanamide], affinity was put at a Ki of 52.4 nM.
For `O=C(C[C@@H](OCCO)[C@H](Cc1ccc(Cl)cc1)c1ccc(F)cc1F)NO` [Example 6-18, (3R,4R)-5-(4-chlorophenyl)-4-(2,4-difluorophenyl)-N-hydroxy-3-(2-hydroxyethoxy)pentanamide], the Ki was found to be 8.75 nM.
`O=C(C[C@@H](OCCCO)[C@H](Cc1ccc(Cl)cc1)c1ccc(F)cc1F)NO` [Example 6-19, (3R,4R)-5-(4-chlorophenyl)-4-(2,4-difluorophenyl)-N-hydroxy-3-(3-hydroxypropoxy)pentanamide] yielded a Ki of 1.45 nM.
On to `CO[C@H](CC(=O)NO)[C@H](Cc1ccc(Cl)cc1)c1ccc(F)cc1F` [Example 6-20, (3R,4R)-5-(4-chlorophenyl)-4-(2,4-difluorophenyl)-N-hydroxy-3-methoxypentanamide potassium salt], for which the affinity, expressed as Ki, was 8.3 nM.
Compound `CCO[C@H](CC(=O)NO)[C@H](Cc1ccc(Cl)cc1)c1ccc(F)cc1F` [Example 6-21, (3R,4R)-5-(4-chlorophenyl)-4-(2,4-difluorophenyl)-3-ethoxy-N-hydroxypentanamide potassium salt] returned a Ki of 12 nM.
Compound `CO[C@H](CC(=O)NO)[C@H](Cc1ccc(Cl)cc1C)c1ccc(F)cc1F` [Example 6-22, (3R,4R)-5-(4-chloro-2-methylphenyl)-4-(2,4-difluorophenyl)-N-hydroxy-3-methoxypentanamide potassium salt] returned a Ki of 6.7 nM.
For the compound `CO[C@H](CC(=O)NO)[C@H](Cc1ccc(Cl)cc1C)c1ccc(Br)cc1F` [Example 6-23, (3R,4R)-4-(4-bromo-2-fluorophenyl)-5-(4-chloro-2-methylphenyl)-N-hydroxy-3-methoxypentanamide], the affinity corresponds to a Ki of 1.94 nM.
In the case of `CCO[C@H](CC(=O)NO)[C@H](Cc1ccc(Cl)cc1)c1ccc(Cl)c(Br)c1` [Example 6-24, (3R,4R)-4-(3-bromo-4-chlorophenyl)-5-(4-chlorophenyl)-3-ethoxy-N-hydroxypentanamide], the Ki is 8.1 nM.
For the compound `CC(C)(C)OC(=O)NCCCO[C@H](CC(=O)NO)[C@H](Cc1ccc(Cl)cc1)c1ccc(F)cc1F` [Example 6-25, tert-butyl (3-(((3R,4R)-5-(4-chlorophenyl)-4-(2,4-difluorophenyl)-1-(hydroxyamino)-1-oxopentan-3-yl)oxy)propyl)carbamate], the Ki is above 150000 nM.
Turning to `NCCCO[C@H](CC(=O)NO)[C@H](Cc1ccc(Cl)cc1)c1ccc(F)cc1F` [Example 6-26, (3R,4R)-3-(3-aminopropoxy)-5-(4-chlorophenyl)-4-(2,4-difluorophenyl)-N-hydroxypentanamide], the affinity corresponds to a Ki of 55000 nM.
As for `O=C(O)CCO[C@H](CC(=O)NO)[C@H](Cc1ccc(Cl)cc1)c1ccc(F)cc1F` [Example 6-27, 3-(((3R,4R)-5-(4-chlorophenyl)-4-(2,4-difluorophenyl)-1-(hydroxyamino)-1-oxopentan-3-yl)oxy)propanoic acid], the Ki stood at 361 nM.
